Assay results as given in the Kinase Knowledgebase extract (Sharma et al. 2016).

These molecules were tested against EGFR (human) (UniProt P00533). Conditions: huvec.
Sequence of EGFR (human) (P00533 whole entry, looked up): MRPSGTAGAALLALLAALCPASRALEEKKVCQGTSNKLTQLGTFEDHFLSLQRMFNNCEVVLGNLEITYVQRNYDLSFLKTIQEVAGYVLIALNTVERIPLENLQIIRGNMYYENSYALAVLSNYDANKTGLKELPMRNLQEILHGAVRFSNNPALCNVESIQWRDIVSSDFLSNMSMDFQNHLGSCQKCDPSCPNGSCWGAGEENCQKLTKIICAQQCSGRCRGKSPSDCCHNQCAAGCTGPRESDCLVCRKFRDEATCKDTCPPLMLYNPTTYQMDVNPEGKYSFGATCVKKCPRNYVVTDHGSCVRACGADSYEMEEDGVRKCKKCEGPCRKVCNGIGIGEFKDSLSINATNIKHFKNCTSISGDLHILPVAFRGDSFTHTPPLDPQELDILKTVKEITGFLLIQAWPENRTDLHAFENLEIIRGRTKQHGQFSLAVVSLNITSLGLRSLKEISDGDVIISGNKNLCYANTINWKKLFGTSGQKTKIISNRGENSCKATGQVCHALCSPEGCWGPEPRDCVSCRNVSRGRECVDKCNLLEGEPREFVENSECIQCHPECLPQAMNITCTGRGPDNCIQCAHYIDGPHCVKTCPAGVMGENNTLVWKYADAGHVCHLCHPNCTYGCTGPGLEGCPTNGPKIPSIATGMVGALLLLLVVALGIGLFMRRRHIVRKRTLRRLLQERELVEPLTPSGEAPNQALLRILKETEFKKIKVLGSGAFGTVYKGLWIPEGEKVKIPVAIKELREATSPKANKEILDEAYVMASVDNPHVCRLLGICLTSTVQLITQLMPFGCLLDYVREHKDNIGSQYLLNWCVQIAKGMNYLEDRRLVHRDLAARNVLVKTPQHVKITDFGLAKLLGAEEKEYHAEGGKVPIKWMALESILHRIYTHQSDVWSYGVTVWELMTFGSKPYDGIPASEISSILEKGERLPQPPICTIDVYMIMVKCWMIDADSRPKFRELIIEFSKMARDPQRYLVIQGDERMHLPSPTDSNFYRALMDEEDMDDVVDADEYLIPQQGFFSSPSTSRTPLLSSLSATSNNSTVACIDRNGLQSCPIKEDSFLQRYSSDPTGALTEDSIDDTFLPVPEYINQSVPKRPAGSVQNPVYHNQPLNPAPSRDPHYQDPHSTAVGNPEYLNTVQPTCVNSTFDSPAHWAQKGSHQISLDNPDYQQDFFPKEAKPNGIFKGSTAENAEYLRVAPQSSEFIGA

Row | Structure (SMILES) | IC50 [nM]
1 | COc1cc2c(Nc3ccc(C#N)cc3F)ncnc2cc1OC/C=C/CN1CCCC1 | 1400
2 | COc1cc2c(Nc3ccc(C)cc3F)ncnc2cc1OCC1CCNCC1 | 450
3 | COc1cc2c(Nc3c(F)cc(Cl)cc3F)ncnc2cc1OCC1CCNCC1 | 600
4 | COc1cc2c(Nc3ccc(Cl)cc3F)ncnc2cc1OCC1CCNCC1 | 100
5 | COc1cc2c(Nc3ccc(Br)cc3F)ncnc2cc1OC/C=C/CN1CCCC1 | 90
6 | COc1cc2c(Nc3ccc(Cl)cc3F)ncnc2cc1OC[C@@H]1CCCN(C)C1 | 150
7 | COc1cc2c(Nc3ccc(Cl)cc3F)ncnc2cc1OCCC1CCN(C)CC1 | 200
8 | COc1cc2c(Nc3c(F)cc(Br)cc3F)ncnc2cc1OCC1CCN(C)CC1 | 400
9 | COc1cc2c(Nc3ccc(C)cc3F)ncnc2cc1OCC1CCN(C)CC1 | 400
10 | COc1cc2c(Nc3ccc(Br)cc3F)ncnc2cc1OCC1CCNCC1 | 100
11 | COc1cc2c(Nc3cc(O)c(C)cc3F)ncnc2cc1OCC1CCN(C)CC1 | 200
12 | COc1cc2c(Nc3ccc(Br)cc3F)ncnc2cc1OCCCN1CCN(C)CC1 | 90
13 | COc1cc2c(Nc3c(F)cc(Br)cc3F)ncnc2cc1OCC1CCNCC1 | 400
14 | COc1cc2c(Nc3ccc(Cl)cc3F)ncnc2cc1OC/C=C/CN1CCCC1 | 80
15 | COc1cc2c(Nc3ccc(Cl)cc3F)ncnc2cc1OCCCN1CCN(C)CC1 | 100
16 | COc1cc2c(Nc3cc(O)c(Cl)cc3F)ncnc2cc1OCC1CCN(C)CC1 | 70
